Key:
[1] = Fluorescence measurements with MC540, TMA-DPH and DPH probes in liposome membranes; details: concentration 1–10 μM
Protocol: (§1) Small unilamellar liposomes (SUV) consisted of phosphatidylcholine (egg-PC) were prepared in accordance with the methodology described by Gabrielska and Oszmiański. The lipids were dissolved in chloroform (100 mg/mL), evaporated to dryness under nitrogen and under vacuum for another 60 min. Subsequently, a phosphate buffer […] of pH 7.4 was added and liposomes were formed by mechanical shaking. Then SUVs were formed using a 20 kHz sonicator for 15 min. During sonication the samples were thermostated at 0–2 °C. In the study, PC liposomes at a concentration of 0.1 mg/mL in phosphate buffer (pH 7.4) were used. Liposomes prepared according to the presented-above procedure were used to determine the antioxidative activity and in fluorometric studies.
The Q 7-MeGlu and Q effect on the hydrophilic and hydrophobic properties of the membrane was determined using the fluorometric method applying the MC540, TMA-DPH and DPH fluorescence probes according to the procedure described by Strugała et al.. Merocyanine 540 (MC540) is a probe that partitions into the membrane and orients parallel to the glycerol backbones of the lipids. The fluorescence intensity of MC540 emission was determined and expressed as relative intensity change in relation to control as a function of studied compounds concentration. The TMA-DPH and DPH probes are supposed to distribute in the hydrophobic part of the bilayer. All the fluorescent probes were used at 1 μM concentration. The DPH and TMA-DPH stock solutions were prepared in DMF, while the probe MC540 was dissolved in methanol. Liposomes were prepared according to procedure described in Section 3.6.1. […] Fluorescence anisotropy for TMA-DPH and DPH was calculated using the following equation [64]:(5) A=I∥−GI⊥/I∥+2GI⊥ where I∥ and I⊥ are fluorescence intensities observed in directions parallel and perpendicular, respectively to the polarization plane of the exciting wave. […]
The fluorescence experiment was conducted using a Cary Eclipse fluorimeter (Varian, Palo Alto, CA, USA). […]

[2] = 1H-NMR study of interaction with DPPC liposomes (PrCl3 shift reagent); details: 0.24 mM compound
Protocol: The ^1H-NMR method of investigating the Q 7-MeGlu and Q interaction with liposomes was described earlier by Gabrielska et al. with minor modifications. Mixtures of phospholipids (DPPC) with studied compounds were co-dissolved in a chloroform/methanol mixture (55:1 v/v) at the respective concentrations. The lipid concentration in the sample was 36 mM and that of Q 7-MeGlu and Q was 0.24 mM […]. The samples were first evaporated under a stream of nitrogen and then in a vacuum (overnight). Then the samples were hydrated with D2O and vigorously shaken (15 min) at temperature above the main phase transition of lipid (41 °C) until optical homogeneity of the mixture was reached. Next, the lipid suspension was sonicated with a 20 kHz sonicator (20 kHz, Sonic, Italy) to yield a homogeneous lipid dispersion. Briefly, before the measurements a 4 mM praseodymium trichloride (PrCl3 × 6H2O) in heavy water solution […] was added to the sample of 0.6 mL liposome suspension. ^1H-NMR parameters were as follows: spectral window 12.019 Hz, digital resolution 0.183 Hz, acquisition and delay times 2.73 s and 1.00 s, respectively, and acquisition temperature 325 K. The experiment was performed in two replicates.

[3] = Liposome oxidation assay (AAPH-induced oxidation, DPH-PA probe); assay type: biochemical; details: for IC50: 30 min oxidation, 37 °C, pH 7.4, read-out: IC50 AAPH PC (inhibition of AAPH induced oxidation of phosphatidylcholine liposomes)
Protocol: as §1
Antioxidant activities of Q 7-MeGlu and Q were determined using a fluorometric method described earlier by Strugała et al. with minor modifications. The studies were carried out on PC liposomes, which contained the fluorescent probe DPH-PA. Use was made of the relationship between DPH-PA fluorescence intensity and concentration of free radicals. The probe’s fluorescence decreased with its rising oxidation caused by free radicals, supplied by AAPH. Molecules of this compound underwent thermal decomposition into two free radicals each. The value of relative intensity of DPH-PA fluorescence was adopted as a measure of the degree of lipid membrane oxidation. It was calculated as a ratio of fluorescence intensity after 30 min of oxidation in the presence of antioxidants to the initial value of the intensity. The studied polyphenolic compounds scavenged free radicals and thus caused a lower rate of DPH-PA fluorescence decrease. PC liposomes at a concentration of 0.1 mg/mL in phosphate buffer (pH 7.4) were used, incubated for 0.5 h in darkness with addition of DPH-PA probe at a concentration of 1 µM (stock solutions were prepared in DMF). […] The wavelengths of excitation and emission for the probe were as follows: λex = 355 nm, λem = 430 nm. Oxidation was initiated just before measurement, using AAPH at a concentration of […] (dissolved in water) at 37 °C (control sample), or in the presence of test substances (Q 7-MeGlu and Q). The concentrations of studied compounds fluctuated in the range 3–7 µM for Q 7-MeGlu and 2–5 µM for Q. The measurements were conducted with a Cary Eclipse fluorimeter.

| Structure (SMILES) | relative changes in anisotropy in the probe TMA-DPH [1] | decrease (Δδ) in the splitting parameter of polar head groups resonance [2] [%] | decrease of the Iout/Iin ratio vs pure DPPC [2] [%] | increase in the half width of the membrane surface signal vs pure DPPC [2] | IC50 [3] [µM] | antioxidative activity, fold higher than L-(+)-ascorbic acid ([3]; from IC50 values) | antioxidative activity, fold lower than quercetin ([3]; from IC50 values) | reduction in intensity of the MC540 probe's fluorescence [1] | decrease in full width at half height (ν) of band of terminal methyl group [2] [%] | increase of the Iout/Iin ratio vs pure DPPC [2] [%] |
| --- | --- | --- | --- | --- | --- | --- | --- | --- | --- | --- |
| CO[C@H]1[C@H](O)[C@@H](O)[C@H](Oc2cc(O)c3c(=O)c(O)c(-c4ccc(O)c(O)c4)oc3c2)O[C@@H]1CO [Q 7-MeGlu, quercetin 7-O-β-D-(4″-O-methyl)glucopyranoside] | 5–10% | 56 | 13 | ~142% | 5.47 ± 0.47 | ca. 24 fold | ca. 1.2 fold | – | – | – |
| O=c1c(O)c(-c2ccc(O)c(O)c2)oc2cc(O)cc(O)c12 [Quercetin, 3,3′,4′,5,7-pentahydroxyflavone] | 16–37% | 32 | – | approximately 119% | 4.49 ± 0.24 | – | – | 29–56% | 4 | 33 |
